Test results published in PMC6701155, “New perspectives on the plant PARP family: Arabidopsis PARP3 is inactive, and PARP1 exhibits predominant poly (ADP-ribose) polymerase activity in response to DNA damage” (BMC Plant Biology, 2019).

Legend:
[1] = molecular target: T1, AtPARP1 (TRXH-AtPARP1) (Arabidopsis thaliana, UniProt Q9ZP54); experiment: auto-PARylation assay, immunoblot with anti-pan-ADPR reagent; assay type: biochemical; conditions: 20 mM 3-AB, 1 mM NAD+, 500 nM broken DNA, 25 °C, pH 7.5, Mg2+
T1 construct: gene PARP1; full-length coding region in pET32a(+), N-terminal thioredoxin-His (TRXH) tag kept, E. coli Origami (DE3), nickel-purified
T1 sequence (Q9ZP54 1-983): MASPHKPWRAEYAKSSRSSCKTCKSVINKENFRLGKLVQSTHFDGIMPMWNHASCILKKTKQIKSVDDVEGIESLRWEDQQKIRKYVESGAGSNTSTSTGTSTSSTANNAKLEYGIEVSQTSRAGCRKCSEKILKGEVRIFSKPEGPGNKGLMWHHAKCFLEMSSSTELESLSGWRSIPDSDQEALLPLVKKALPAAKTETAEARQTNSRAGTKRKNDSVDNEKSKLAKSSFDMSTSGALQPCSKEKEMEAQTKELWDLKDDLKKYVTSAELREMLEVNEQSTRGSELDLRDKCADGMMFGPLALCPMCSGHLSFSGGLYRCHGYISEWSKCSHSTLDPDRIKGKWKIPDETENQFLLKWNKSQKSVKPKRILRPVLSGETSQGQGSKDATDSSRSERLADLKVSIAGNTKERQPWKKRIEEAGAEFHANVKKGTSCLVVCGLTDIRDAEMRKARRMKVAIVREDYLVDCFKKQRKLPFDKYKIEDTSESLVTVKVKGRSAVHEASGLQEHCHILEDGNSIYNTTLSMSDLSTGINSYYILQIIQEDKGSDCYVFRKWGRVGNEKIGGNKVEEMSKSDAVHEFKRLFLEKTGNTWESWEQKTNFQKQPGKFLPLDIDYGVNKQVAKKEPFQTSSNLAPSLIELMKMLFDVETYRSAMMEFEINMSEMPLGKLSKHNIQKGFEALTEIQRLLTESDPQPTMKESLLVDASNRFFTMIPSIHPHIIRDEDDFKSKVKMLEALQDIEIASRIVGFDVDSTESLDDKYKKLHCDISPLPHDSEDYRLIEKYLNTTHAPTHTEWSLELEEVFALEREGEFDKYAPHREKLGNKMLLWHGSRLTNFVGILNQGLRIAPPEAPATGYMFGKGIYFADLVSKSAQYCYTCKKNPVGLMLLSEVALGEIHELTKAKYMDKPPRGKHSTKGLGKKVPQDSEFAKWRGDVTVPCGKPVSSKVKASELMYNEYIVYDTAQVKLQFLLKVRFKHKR

[2] = molecular target: T2, AtPARP2 (TRXH-AtPARP2) (Arabidopsis thaliana, UniProt Q11207); experiment: as above; assay type: biochemical; conditions: 1 mM NAD+, 500 nM broken DNA, 25 °C, pH 7.5, Mg2+
T2 construct: gene PARP2; an MBP/MBD fusion was also tested
T2 sequence (Q11207 whole entry, the tested form may be a part): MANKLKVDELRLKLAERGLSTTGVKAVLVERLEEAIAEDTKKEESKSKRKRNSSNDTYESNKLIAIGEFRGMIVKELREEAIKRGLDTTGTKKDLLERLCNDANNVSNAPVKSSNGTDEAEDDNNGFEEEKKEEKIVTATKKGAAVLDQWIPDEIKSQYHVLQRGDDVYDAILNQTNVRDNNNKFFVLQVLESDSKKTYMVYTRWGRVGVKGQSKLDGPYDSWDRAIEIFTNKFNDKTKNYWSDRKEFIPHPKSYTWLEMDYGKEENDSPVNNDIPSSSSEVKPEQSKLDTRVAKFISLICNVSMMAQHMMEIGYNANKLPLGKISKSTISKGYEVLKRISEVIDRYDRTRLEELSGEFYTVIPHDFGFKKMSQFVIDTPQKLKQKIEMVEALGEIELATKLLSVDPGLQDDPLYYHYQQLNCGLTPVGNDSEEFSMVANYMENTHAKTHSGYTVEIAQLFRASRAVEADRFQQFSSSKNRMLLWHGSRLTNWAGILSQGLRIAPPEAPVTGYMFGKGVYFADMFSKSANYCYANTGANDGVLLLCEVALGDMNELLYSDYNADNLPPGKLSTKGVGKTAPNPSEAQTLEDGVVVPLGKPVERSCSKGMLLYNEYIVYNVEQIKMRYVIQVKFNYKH

| SMILES | auto-PARylation assay, immunoblot with anti-pan-ADPR reagent [1] | auto-PARylation assay, immunoblot with anti-pan-ADPR reagent [2] |
| --- | --- | --- |
| NC(=O)c1cccc(N)c1 [3-AB] | The signal was abolished by the PARP inhibitor 3-AB | – |
| NC(=O)c1ccc[n+]([C@@H]2O[C@H](COP(=O)(O)OP(=O)(O)OC[C@H]3O[C@@H](n4cnc5c(N)ncnc54)[C@H](O)[C@@H]3O)[C@@H](O)[C@H]2O)c1 [NAD^+] | – | AtPARP2 produced shorter PAR chains than AtPARP1 within the same incubation time periods |
